Data on three compounds can be found in patent publication US20080254080A1, “Novel Uses of Calcium Hydroxide” (priority 2004, published 2008).

One test relates to H5N1 virus. Particulars: cited from earlier work.
Test [1] deals with different bacterial strains including Bacillus subtilis. Particulars: agar diffusion; hydrated spores; cited from earlier work.
Test [2] relates to warts, toe and foot fungus, skin tags. The experiment in a line: Topical use of hydrated lime. The following applies: in vivo.

With `NC12CC3CC(CC(C3)C1)C2` [amantadine], the “susceptibility of H5N1 virus currently infecting birds in Asia” value in the test with H5N1 virus is listed as “resistant”.

On to `[Ca+2].[OH-].[OH-]` [calcium hydroxide], for which the “antimicrobial activity compared with the other antimicrobial agents (MTA, Portland cement, Sealapex, Dycal)” value in test [1] is “superior”. For the same compound, in test [2], the “removal of warts, toe and foot fungus, skin tags” value is “shown to remove warts, toe and foot fungus, skin tags”.

As to `CC(N)C12CC3CC(CC(C3)C1)C2` (stereo not shown) [rimantadine], the “susceptibility of H5N1 virus currently infecting birds in Asia” value in the test with H5N1 virus was “resistant”.
